Test results reported in ChEMBL document CHEMBL5724914, “Linking interpersonal differences in gut microbiota composition and drug biotransformation activity” (2024).

Legend:
[1] = human gut metagenome, 24 h, 2 µM
[2] = (§1) The drug is tested on Z-007 corresponding to rat gut metagenome with ENA study accession number: PRJEB37062 and ENA sample accession number: ERS12561807 for biotransformation under anaerobic condition. The drug concentrations were measured over 9 timepoints collected between 0 and 24 hours of incubation by liquid-chromatography-coupled mass spectrometry (LC–MS); conditions: 2 µM
[3] = as §1, with “on Z-011” for “on Z-007”, “to mouse” for “to rat”, “number: ERS12561811” for “number: ERS12561807”; conditions: 2 µM
[4] = as §1, with “on WLS-086” for “on Z-007”, “to human” for “to rat”, “number: ERS12561752” for “number: ERS12561807”; conditions: 2 µM
[5] = as §1, with “on WLS-010” for “on Z-007”, “to human” for “to rat”, “number: ERS12561743” for “number: ERS12561807”; conditions: 2 µM
[6] = human gut metagenome, 24 h, 2 µM; remark: listed apart in the source
[7] = human gut metagenome, 24 h, 2 µM; remark: listed apart in the source
[8] = as §1, with “Z-005” for “Z-007”, “to” for “to rat gut”, “ERS12561805” for “ERS12561807”; conditions: 2 µM
[9] = as §1, with “Z-019” for “Z-007”, “ERS12561818” for “ERS12561807”; conditions: 2 µM
[10] = human gut metagenome, 24 h, 2 µM; remark: listed apart in the source
[11] = human gut metagenome, 24 h, 2 µM; remark: listed apart in the source
[12] = as §1, with “on Z-006” for “on Z-007”, “to mouse” for “to rat”, “number: ERS12561806” for “number: ERS12561807”; conditions: 2 µM
[13] = as §1, with “on WLS-077” for “on Z-007”, “to human” for “to rat”, “number: ERS12561750” for “number: ERS12561807”; conditions: 2 µM
[14] = as §1, with “on Z-003” for “on Z-007”, “to pig” for “to rat”, “number: ERS12561803” for “number: ERS12561807”; conditions: 2 µM
[15] = human gut metagenome, 24 h, 2 µM; remark: listed apart in the source
[16] = human gut metagenome, 24 h, 2 µM; remark: listed apart in the source
[17] = human gut metagenome, 24 h, 2 µM; remark: listed apart in the source
[18] = human gut metagenome, 24 h, 2 µM; remark: listed apart in the source
[19] = human gut metagenome, 24 h, 2 µM; remark: listed apart in the source
[20] = human gut metagenome, 24 h, 2 µM; remark: listed apart in the source
Further: call rule not given here.

COc1cc2c(c(OC)c1OC)-c1ccc(OC)c(=O)cc1[C@@H](NC(C)=O)CC2 [COLCHICINE]
Bacterial Biotransformation [1]: Compound metabolized
Bacterial Biotransformation [2]: Compound NOT metabolized
Bacterial Biotransformation [3]: Compound NOT metabolized
Bacterial Biotransformation [4]: Compound NOT metabolized
Bacterial Biotransformation [5]: Compound metabolized
Bacterial Biotransformation [6]: Compound metabolized
Bacterial Biotransformation [7]: Compound NOT metabolized
Bacterial Biotransformation [8]: Compound metabolized
Bacterial Biotransformation [9]: Compound NOT metabolized
Bacterial Biotransformation [10]: Compound NOT metabolized
Bacterial Biotransformation [11]: Compound metabolized
Bacterial Biotransformation [12]: Compound NOT metabolized
Bacterial Biotransformation [13]: Compound metabolized
Bacterial Biotransformation [14]: Compound NOT metabolized
Bacterial Biotransformation [15]: Compound NOT metabolized
Bacterial Biotransformation [16]: Compound NOT metabolized
Bacterial Biotransformation [17]: Compound metabolized
Bacterial Biotransformation [18]: Compound metabolized
Bacterial Biotransformation [19]: Compound metabolized
Bacterial Biotransformation [20]: Compound metabolized

CC(=O)OCC(=O)[C@@]12N=C(C)O[C@@H]1C[C@H]1[C@@H]3CCC4=CC(=O)C=C[C@]4(C)[C@H]3[C@@H](O)C[C@@]12C [DEFLAZACORT]
Bacterial Biotransformation [1]: Compound metabolized
Bacterial Biotransformation [2]: Compound metabolized
Bacterial Biotransformation [3]: Compound metabolized
Bacterial Biotransformation [4]: Compound metabolized
Bacterial Biotransformation [5]: Compound metabolized
Bacterial Biotransformation [6]: Compound metabolized
Bacterial Biotransformation [7]: Compound metabolized
Bacterial Biotransformation [8]: Compound metabolized
Bacterial Biotransformation [9]: Compound NOT metabolized
Bacterial Biotransformation [10]: Compound metabolized
Bacterial Biotransformation [11]: Compound metabolized
Bacterial Biotransformation [12]: Compound metabolized
Bacterial Biotransformation [13]: Compound metabolized
Bacterial Biotransformation [14]: Compound metabolized
Bacterial Biotransformation [15]: Compound NOT metabolized
Bacterial Biotransformation [16]: Compound metabolized
Bacterial Biotransformation [17]: Compound metabolized
Bacterial Biotransformation [18]: Compound metabolized
Bacterial Biotransformation [19]: Compound metabolized
Bacterial Biotransformation [20]: Compound metabolized

CN(C)CC(c1ccc(O)cc1)C1(O)CCCCC1.O=C(O)CCC(=O)O (stereo not given) [DESVENLAFAXINE SUCCINATE]
Bacterial Biotransformation [1]: Compound NOT metabolized
Bacterial Biotransformation [2]: Compound NOT metabolized
Bacterial Biotransformation [3]: Compound NOT metabolized
Bacterial Biotransformation [4]: Compound NOT metabolized
Bacterial Biotransformation [5]: Compound NOT metabolized
Bacterial Biotransformation [6]: Compound NOT metabolized
Bacterial Biotransformation [7]: Compound NOT metabolized
Bacterial Biotransformation [8]: Compound NOT metabolized
Bacterial Biotransformation [9]: Compound NOT metabolized
Bacterial Biotransformation [10]: Compound NOT metabolized
Bacterial Biotransformation [11]: Compound NOT metabolized
Bacterial Biotransformation [12]: Compound NOT metabolized
Bacterial Biotransformation [13]: Compound NOT metabolized
Bacterial Biotransformation [14]: Compound NOT metabolized
Bacterial Biotransformation [15]: Compound NOT metabolized
Bacterial Biotransformation [16]: Compound NOT metabolized
Bacterial Biotransformation [17]: Compound NOT metabolized
Bacterial Biotransformation [18]: Compound NOT metabolized
Bacterial Biotransformation [19]: Compound NOT metabolized
Bacterial Biotransformation [20]: Compound NOT metabolized

CN1CCN(C(=O)O[C@H]2c3nccnc3C(=O)N2c2ccc(Cl)cn2)CC1 [ESZOPICLONE]
Bacterial Biotransformation [1]: Compound NOT metabolized
Bacterial Biotransformation [2]: Compound NOT metabolized
Bacterial Biotransformation [3]: Compound NOT metabolized
Bacterial Biotransformation [4]: Compound NOT metabolized
Bacterial Biotransformation [5]: Compound NOT metabolized
Bacterial Biotransformation [6]: Compound NOT metabolized
Bacterial Biotransformation [7]: Compound NOT metabolized
Bacterial Biotransformation [8]: Compound NOT metabolized
Bacterial Biotransformation [9]: Compound NOT metabolized
Bacterial Biotransformation [10]: Compound NOT metabolized
Bacterial Biotransformation [11]: Compound NOT metabolized
Bacterial Biotransformation [12]: Compound NOT metabolized
Bacterial Biotransformation [13]: Compound NOT metabolized
Bacterial Biotransformation [14]: Compound NOT metabolized
Bacterial Biotransformation [15]: Compound NOT metabolized
Bacterial Biotransformation [16]: Compound NOT metabolized
Bacterial Biotransformation [17]: Compound NOT metabolized
Bacterial Biotransformation [18]: Compound NOT metabolized
Bacterial Biotransformation [19]: Compound NOT metabolized
Bacterial Biotransformation [20]: Compound NOT metabolized
